Among the data in BindingDB's records for patent US20250340565 (AdoRx Therapeutics, 2025) are IC50 values, retold here.

The target in the assay is T1, 5'-nucleotidase [27-547] (UniProt P21589).
T1 construct: 27-547
T1 sequence (P21589 whole entry): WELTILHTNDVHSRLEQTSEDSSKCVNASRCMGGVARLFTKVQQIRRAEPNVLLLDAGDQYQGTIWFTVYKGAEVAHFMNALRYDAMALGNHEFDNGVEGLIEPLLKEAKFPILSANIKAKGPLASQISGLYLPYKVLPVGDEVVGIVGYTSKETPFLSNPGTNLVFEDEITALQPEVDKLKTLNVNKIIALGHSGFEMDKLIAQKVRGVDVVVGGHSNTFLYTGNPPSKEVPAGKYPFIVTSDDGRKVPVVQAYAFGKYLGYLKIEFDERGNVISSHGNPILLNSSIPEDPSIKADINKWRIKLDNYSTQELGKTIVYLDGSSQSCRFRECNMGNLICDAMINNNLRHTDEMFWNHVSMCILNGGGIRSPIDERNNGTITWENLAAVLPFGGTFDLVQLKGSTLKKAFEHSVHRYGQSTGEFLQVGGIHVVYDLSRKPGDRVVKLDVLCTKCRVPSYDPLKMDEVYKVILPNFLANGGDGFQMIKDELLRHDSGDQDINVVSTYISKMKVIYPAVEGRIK
Put plainly: CD73 Inhibition Assay. The procedure:
Compound inhibition of human (h)CD73 (amino acids Trp27-Lys547, R&D Systems 5795-EN-500) enzymatic activity was tested via the Malachite Green Phosphate Detection Kit (R&D DY996). Experiments were performed in 20 μL Tris buffer (25 mM Tris pH 7.5, 5 mM MgCl2, 0.002% Tween20), with 250 pM of hCD73. Test compounds of interest were prepared in a threefold serial dilution in DMSO and added to the assay to give the appropriate final concentration, with the assay DMSO concentration being 1%. Compounds were pre-incubated for 20 minutes with hCD73 in a 384 well clear plate (Greiner 781101), followed by the addition of adenosine monophosphate (AMP) to 12.5 μM. The enzymatic reaction was carried out for 20 min at room temperature. 5 μL of Malachite kit reagent A was added to stop the reaction (contains 3M H2SO4) and after 10 min, 5 μL of Malachite kit reagent B was added (Malachite Green). After 30 min, absorbance at 620 nm was read on a BMG Pherastar FSX.

What is called IC50 is the concentration that gives 50% inhibition. A higher IC50 goes with weaker potency in that assay. `O=c1[nH]cc(-n2cc3c(N4C[C@@H]5COC[C@H]5C4)ncnc3n2)c(=O)[nH]1` [US20250340565, Example 13.10]: the midpoint of inhibition, the IC50, lay at 898 nM. In other words, the sub-micromolar range.
